pIC50: −log10 of the molar value.
Target: T1, JAK3: Recombinant human kinase domain (Homo sapiens, UniProt P52333)
T1 construct: JAK3: Recombinant human kinase domain from Millipore (Cat #14-629) or prepared; purchased Millipore 14-629
Assay: Determination of IC50 of Janus Kinase (JAK) inhibition, radioactive end-point 33P-ATP assay, JAK3
Type: biochemical
Conditions: ATP 1.5 uM, peptide 50 uM, 20 minutes, read-out: JAK3-INHIB-DR/v1~NO ADDITIVE~Enzyme_Conc = 100

T1 sequence (P52333 822-1111 limits assumed): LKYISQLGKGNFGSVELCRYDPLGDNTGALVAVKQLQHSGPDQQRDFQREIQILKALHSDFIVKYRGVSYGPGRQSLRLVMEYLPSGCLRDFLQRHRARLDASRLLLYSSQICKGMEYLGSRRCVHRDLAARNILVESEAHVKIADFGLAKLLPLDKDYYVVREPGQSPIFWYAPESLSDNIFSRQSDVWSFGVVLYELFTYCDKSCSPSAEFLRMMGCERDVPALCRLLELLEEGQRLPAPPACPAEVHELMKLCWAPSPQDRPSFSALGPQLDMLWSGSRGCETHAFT

pIC50	Structure (SMILES)
8.24	C[C@@H](NC(=O)c1c[nH]c2ncc(-c3nn(C)c4c3CCCC4)nc12)C(=O)N1CC(C#N)C1 [Example I-26, 2-(1-Methyl-4,5,6,7-tetrahydro-1H-indazol-3-yl)-5H-pyrrolo[2,3-b]pyrazine-7-carboxylic acid [(R)-2-(3-cyano-azetidin-1-yl)-1-methyl-2-oxo-ethyl]-amide]
7.69	C[C@@H](NC(=O)c1c[nH]c2ncc(-c3nn(C)c4cc(Cl)ccc34)nc12)C(=O)N1CC2(COC2)C1 [Example I-27, 2-(6-Chloro-1-methyl-1H-indazol-3-yl)-5H-pyrrolo[2,3-b]pyrazine-7-carboxylic acid [(R)-1-methyl-2-(2-oxa-6-aza-spiro[3.3]hept-6-yl)-2-oxo-ethyl]-amide]
7.07	C[C@@H](NC(=O)c1c[nH]c2ncc(-c3nn(C)c4cc(Cl)ccc34)nc12)C(=O)N1CCOCC1 [Example I-28, 2-(6-Chloro-1-methyl-1H-indazol-3-yl)-5H-pyrrolo[2,3-b]pyrazine-7-carboxylic acid ((R)-1-methyl-2-morpholin-4-yl-2-oxo-ethyl)-amide]
8.84	C[C@@H](NC(=O)c1c[nH]c2ncc(-c3nn(C)c4cc(Cl)c(F)cc34)nc12)C(=O)N1CC(C#N)C1 [Example I-30, 2-(6-Chloro-5-fluoro-1-methyl-1H-indazol-3-yl)-5H-pyrrolo[2,3-b]pyrazine-7-carboxylic acid [(R)-2-(3-cyano-azetidin-1-yl)-1-methyl-2-oxo-ethyl]-amide]
8.90	Cc1nc(-c2cnc3[nH]cc(C(=O)N[C@H](C)C(=O)N4CC(C#N)C4)c3n2)c2ccc(F)cn12 [Example I-34, 2-(6-Fluoro-3-methyl-imidazo[1,5-a]pyridin-1-yl)-5H-pyrrolo[2,3-b]pyrazine-7-carboxylic acid [(R)-2-(3-cyano-azetidin-1-yl)-1-methyl-2-oxo-ethyl]-amide]
9.48	C[C@@H](NC(=O)c1c[nH]c2ncc(-c3nc(CO)n4cc(F)ccc34)nc12)C(=O)N1CC(C#N)C1 [Example I-35, 2-(6-Fluoro-3-hydroxymethyl-imidazo[1,5-a]pyridin-1-yl)-5H-pyrrolo[2,3-b]pyradine-7-carboxylic acid [(R)-2-(3-cyano-azetidin-1-yl)-1-methyl-2-oxo-ethyl]-amide]
9.43	COC[C@H](C)NC(=O)c1c[nH]c2ncc(-c3ncn4cc(F)ccc34)nc12 [Example I-41, 2-(6-Fluoro-imidazo[1,5-a]pyridin-1-yl)-5H-pyrrolo[2,3-b]pyrazine-7-carboxylic acid ((S)-2-methoxy-1-methyl-ethyl)-amide]
8.90	C[C@@H](NC(=O)c1c[nH]c2ncc(-c3nc(S(C)(=O)=O)n4cc(F)ccc34)nc12)C(=O)N1CC(C#N)C1 [Example I-42, 2-(6-Fluoro-3-methanesulfonyl-imidazo[1,5-a]pyridin-1-yl)-5H-pyrrolo[2,3-b]pyrazine-7-carboxylic acid [(R)-2-(3-cyano-azetidin-1-yl)-1-methyl-2-oxo-ethyl]-amide]
8.25	CC(NC(=O)c1c[nH]c2ncc(-c3nn(C)c4cc(F)ccc34)nc12)c1ncco1 (centres unmarked) [Example I-49, 2-(6-Fluoro-1-methyl-1H-indazol-3-yl)-5H-pyrrolo[2,3-b]pyrazine-7-carboxylic acid (1-oxazol-2-yl-ethyl)-amide]
8.58	C[C@@H](NC(=O)c1c[nH]c2ncc(-c3nn(C)c4cc(F)ccc34)nc12)c1ncco1 [Example I-50, 2-(6-Fluoro-1-methyl-1H-indazol-3-yl)-5H-pyrrolo[2,3-b]pyrazine-7-carboxylic acid ((R)-1-oxazol-2-yl-ethyl)-amide]
8.04	C[C@H](NC(=O)c1c[nH]c2ncc(-c3nn(C)c4cc(F)ccc34)nc12)c1ncco1 [Example I-51, 2-(6-Fluoro-1-methyl-1H-indazol-3-yl)-5H-pyrrolo[2,3-b]pyrazine-7-carboxylic acid ((S)-1-oxazol-2-yl-ethyl)-amide]
8.15	CC(NC(=O)c1c[nH]c2ncc(-c3nn(C)c4cc(F)ccc34)nc12)c1ccon1 (centres unmarked) [Example I-53, 2-(6-Fluoro-1-methyl-1H-indazol-3-yl)-5H-pyrrolo[2,3-b]pyrazine-7-carboxylic acid (1-isoxazol-3-yl-ethyl)-amide]
8.64	C[C@@H](NC(=O)c1c[nH]c2ncc(-c3ncn4cc(F)ccc34)nc12)c1ncco1 [Example I-58, 2-(6-Fluoro-imidazo[1,5-a]pyridin-1-yl)-5H-pyrrolo[2,3-b]pyrazine-7-carboxylic acid ((R)-1-oxazol-2-yl-ethyl)-amide]
8.50	CCC[C@@H](NC(=O)c1c[nH]c2ncc(-c3nn(C)c4cc(F)ccc34)nc12)C(=O)N1CC(F)C1 [Example I-59, 2-(6-Fluoro-1-methyl-1H-indazol-3-yl)-5H-pyrrolo[2,3-b]pyrazine-7-carboxylic acid [(R)-1-(3-fluoro-azetidine-1-carbonyl)-butyl]-amide]
7.78	C[C@@H](NC(=O)c1c[nH]c2ncc(-c3nn(C)c4cc(F)ccc34)nc12)C(F)(F)Cc1ccccc1 [Example I-61, 2-(6-Fluoro-1-methyl-1H-indazol-3-yl)-5H-pyrrolo[2,3-b]pyrazine-7-carboxylic acid ((R)-2,2-difluoro-1-methyl-3-phenyl-propyl)-amide]
7.82	C[C@@H](NC(=O)c1c[nH]c2ncc(-c3nn(C)c4cc(F)ccc34)nc12)c1nc(CC#N)co1 [Example I-62, 2-(6-Fluoro-1-methyl-1H-indazol-3-yl)-5H-pyrrolo[2,3-b]pyrazine-7-carboxylic acid [(R)-1-(4-cyanomethyl-oxazol-2-yl)-ethyl]-amide]
8.18	C[C@@H](NC(=O)c1c[nH]c2ncc(-c3nn(C)c4cc(F)ccc34)nc12)[C@@H]1CCCO1 [Example I-63, 2-(6-Fluoro-1-methyl-1H-indazol-3-yl)-5H-pyrrolo[2,3-b]pyrazine-7-carboxylic acid [(R)-(S)-1-(tetrahydro-furan-2-yl)-ethyl]-amide]
7.88	C[C@@H](NC(=O)c1c[nH]c2ncc(-c3nn(C)c4cc(F)ccc34)nc12)[C@H]1CCCO1 [Example I-64, 2-(6-Fluoro-1-methyl-1H-indazol-3-yl)-5H-pyrrolo[2,3-b]pyrazine-7-carboxylic acid [(R)-(R)-1-(tetrahydro-furan-2-yl)-ethyl]-amide]
8.66	N#CC1CCN(C(=O)[C@H](NC(=O)c2c[nH]c3ncc(-n4ncc5cc(Cl)ccc54)nc23)C2CC2)CC1 [Example I-66, 2-(5-Chloro-indazol-1-yl)-5H-pyrrolo[2,3-b]pyrazine-7-carboxylic acid [(R)-2-(4-cyano-piperidin-1-yl)-1-cyclopropyl-2-oxo-ethyl]-amide]
9.32	Cn1nc(-c2cnc3[nH]cc(C(=O)N[C@@H](C(=O)N4CCC(C#N)CC4)C4CC4)c3n2)c2cc(Cl)c(Cl)cc21 [Example I-67, 2-(5,6-Dichloro-1-methyl-1H-indazol-3-yl)-5H-pyrrolo[2,3-b]pyrazine-7-carboxylic acid [(R)-2-(4-cyano-piperidin-1-yl)-1-cyclopropyl-2-oxo-ethyl]-amide]
8.24	N#CC1CCN(C(=O)[C@H](NC(=O)c2c[nH]c3ncc(-n4ncc5cc(Cl)c(Cl)cc54)nc23)C2CC2)CC1 [Example I-68, 2-(5,6-Dichloro-indazol-1-yl)-5H-pyrrolo[2,3-b]pyrazine-7-carboxylic acid [(R)-2-(4-cyano-piperidin-1-yl)-1-cyclopropyl-2-oxo-ethyl]-amide]
7.53	C[C@@H](NC(=O)c1c[nH]c2ncc(-c3nn(C)c4c3CCC(C)(C)C4)nc12)C(=O)N1CC(C#N)C1 [Example I-70, 2-(1,6,6-Trimethyl-4,5,6,7-tetrahydro-1H-indazol-3-yl)-5H-pyrrolo[2,3-b]pyrazine-7-carboxylic acid [(R)-2-(3-cyano-azetidin-1-yl)-1-methyl-2-oxo-ethyl]-amide]
6.55	C[C@H](CC(=O)N1CCCC1)NC(=O)c1c[nH]c2ncc(-c3nn(C)c4cc(Cl)ccc34)nc12 [Example I-72, 2-(6-Chloro-1-methyl-1H-indazol-3-yl)-5H-pyrrolo[2,3-b]pyrazine-7-carboxylic acid ((R)-1-methyl-3-oxo-3-pyrrolidin-1-yl-propyl)-amide]
8.03	CC(NC(=O)c1c[nH]c2ncc(-c3nn(C)c4cc(F)ccc34)nc12)[C@H]1C[C@H](C#N)C1 (stereo partly drawn) [Example I-74, 2-(6-Fluoro-1-methyl-1H-indazol-3-yl)-5H-pyrrolo[2,3-b]pyrazine-7-carboxylic acid [1-(trans-3-cyano-cyclobutyl)-ethyl]-amide]
7.90	CC(NC(=O)c1c[nH]c2ncc(-c3nn(C)c4cc(F)ccc34)nc12)[C@H]1C[C@@H](C#N)C1 (stereo partly drawn) [Example I-76, 2-(6-Fluoro-1-methyl-1H-indazol-3-yl)-5H-pyrrolo[2,3-b]pyrazine-7-carboxylic acid [1-(cis-3-cyano-cyclobutyl)-ethyl]-amide]
7.82	C[C@@H](NC(=O)c1c[nH]c2ncc(-c3nn(C)c4cc(F)ccc34)nc12)c1cc(C(F)(F)F)ccn1 [Example I-79, 2-(6-Fluoro-1-methyl-1H-indazol-3-yl)-5H-pyrrolo[2,3-b]pyrazine-7-carboxylic acid [(R)-1-(4-trifluoromethyl-pyridin-2-yl)-ethyl]-amide]
8.87	Cc1ccc2c(-c3cnc4[nH]cc(C(=O)N[C@H](C)C(=O)N5CC(C#N)C5)c4n3)nn(C)c2c1 [Example I-82]
8.80	C[C@@H](NC(=O)c1c[nH]c2ncc(-c3nn(C)c4cc(F)cc(F)c34)nc12)C(=O)N1CC(C#N)C1 [Example I-88, 2-(4,6-Difluoro-1-methyl-1H-indazol-3-yl)-5H-pyrrolo[2,3-b]pyrazine-7-carboxylic acid [(R)-2-(3-cyano-azetidin-1-yl)-1-methyl-2-oxo-ethyl]-amide]
8.96	Cc1ccc2c(-c3cnc4[nH]cc(C(=O)N[C@H](C)C(=O)N5CC(C#N)C5)c4n3)nn(C)c2n1 [Example I-89, 2-(1,6-Dimethyl-1H-pyrazolo[3,4-b]pyridin-3-yl)-5H-pyrrolo[2,3-b]pyrazine-7-carboxylic acid [(R)-2-(3-cyano-azetidin-1-yl)-1-methyl-2-oxo-ethyl]-amide]

Source: US8658646B2, “Pyrrolopyrazine kinase inhibitors” (Hoffmann-LaRoche Inc., priority 2011, dated 2014)
